Our source for the target mRNA inhibition values is the OligoGym collection.

Values joined by “and” are separate entries in the source; they are usually repeats but may differ in a detail not shown here. Equal values may be shown once. After the bases stand the sugars from the 5' end (letter, count) and the backbone: PS all phosphorothioate, else s phosphorothioate and o phosphodiester by linkage. Methylation of C is not given here. e = 2'-O-(2-methoxyethyl) (MOE); k = constrained ethyl (cEt); d = 2'-deoxy (DNA)

In one data set the target is IRF4. Conditions: ASO, MM.1R, 0.0625 µM.
For CAAACCTTAAGCTATT (sugars k3 d10 k3, PS), the target mRNA inhibition is -13%.

Staying with this data set, now noted: ASO, MM.1R, 0.074 µM.
Consider CATTTACTGTTACCGA (sugars k3 d10 k3, PS), for which the target mRNA inhibition was -14%.

Staying with this data set, now noted: ASO, MM.1R, 0.222 µM.
On to CATTTACTGTTACCGA (sugars k3 d10 k3, PS), for which the target mRNA inhibition stood at 0%.

Staying with this data set, now noted: ASO, MM.1R, 0.25 µM.
Consider CAAACCTTAAGCTATT (sugars k3 d10 k3, PS), for which the target mRNA inhibition is -5%.

The same data set, now with this note: ASO, MM.1R, 0.666 µM.
Regarding CATTTACTGTTACCGA (sugars k3 d10 k3, PS), the target mRNA inhibition is -9%.

Staying with this data set, now noted: ASO, MM.1R, 1 µM.
As to “CGTGTGCTTGCCAAGC (sugars kddddddddddkekek, PS)”, the target mRNA inhibition was 30% and 32%. In the case of “CAGTGACTTGCATCCA (sugars kkdddddddddkdkdk, PS)”, the target mRNA inhibition was 36%. On the same count and under the same terms, the result for “ACCTCAGTTTGTGAAG (sugars kkdddddddddekeke, PS)” reads 13%; that for “TGATGTGATAGCTGAG (sugars k2 d9 e3 k2, PS)”, 47%.

Take “CAAGTGTCTAAAGTCC (sugars kddddddddddkekek, PS)”: the target mRNA inhibition was 7% and 12%. On the same count and under the same terms, the result for “GTGATGTCAGGTTTTC (sugars kdddddddddkekeke, PS)” reads 30%; that for “CTGCTTGAGGTTTTCC (sugars kkddddddddddkeke, PS)”, 44%; that for TTTGAGACTTAACCCA (sugars k3 d10 k3, PS), 31%. Consider GGCGGACACGCCCGAC (sugars k3 d10 k3, PS), for which the target mRNA inhibition was 7%. On to “GCAGTGATGTCAGGTT (sugars kkkddddddddkekek, PS)”, for which the target mRNA inhibition came to 36%. Same read-out and setting: to GTCATATGGCTAAACC (sugars k3 d10 k3, PS) belongs 23%; to CCGCAGCCCAAAGGCT (sugars k3 d10 k3, PS), 4%; to GCTTCAAGACAGGTCT (sugars k3 d10 k3, PS), 29%.

Take “GATTATATACTGGTTG (sugars k2 d9 e3 k2, PS)”: the target mRNA inhibition came to 42%. Still for that read-out and setting: to “ACACTTTTAGAGAGGA (sugars k3 d9 k3 e1, PS)” belongs 29%; to “TACTGTTACCGATGCT (sugars kddddddddddkekek, PS)”, 10% and 2%. As to TAATTCTCCTATGCTG (sugars k3 d10 k3, PS), the target mRNA inhibition was found to be 3%.

Turning to GCTGAACCCCACAGGA (sugars k3 d10 k3, PS), the target mRNA inhibition was determined as 0%.

Regarding ACTTGCTAAGTCTTAT (sugars k3 d10 k3, PS), the target mRNA inhibition stood at 13%. Still for that read-out and setting: to ATATACATTGAGGCAT (sugars k3 d10 k3, PS) belongs -31%; to TGAACGGAAGTTTACA (sugars k3 d10 k3, PS), 14%. Turning to “AGTGACTTGCATCCAT (sugars kdddddddddkekeke, PS)”, the target mRNA inhibition worked out at 8%.

The same data set, now with this note: ASO, MM.1R, 2 µM.
Turning to CATTTACTGTTACCGA (sugars k3 d10 k3, PS), the target mRNA inhibition is 10%.

The same data set, now with this note: ASO, MM.1R, 4 µM.
In the case of CAAACCTTAAGCTATT (sugars k3 d10 k3, PS), the target mRNA inhibition is 6%.

The data set is the same for the next values; noted with them: ASO, SK-MEL-28, 0.185 µM.
As for CTGCTCACTAAGCTTG (sugars k3 d10 k3, PS), the target mRNA inhibition was 6% and 5% and -1%.

Staying with this data set, now noted: ASO, SK-MEL-28, 4 µM.
For TTACACTGGATCTGAA (sugars k3 d10 k3, PS), the target mRNA inhibition is 38%. Still for that read-out and setting: the result for TTGAAAGACTAACTGG (sugars k3 d10 k3, PS) reads 20%. On the same count and under the same terms, to GCATAGAGCCCGTCGG (sugars k3 d10 k3, PS) belongs 50%; to TAATAGTAAGTTCTAG (sugars k3 d10 k3, PS), 0%. Still for that read-out and setting: the result for TTCAGCAGAAAGTGGG (sugars k3 d10 k3, PS) reads 48%; that for AAGCGCACCGCAGGCG (sugars k3 d10 k3, PS), 4%. For the sequence GTAACTTGACTTGAGA (sugars k3 d10 k3, PS), the target mRNA inhibition was 49%.

For the sequence GTACATGGCAGTGGAG (sugars k3 d10 k3, PS), the target mRNA inhibition was 56%.

On to TTCCAACAATAGCAAC (sugars k3 d10 k3, PS), for which the target mRNA inhibition turned out to be 46%. The same measure, in the same setting: the result for TACTTGGACAGAAGGG (sugars k3 d10 k3, PS) reads 62%; that for CTGCTCACTAAGCTTG (sugars k3 d10 k3, PS), 73%; that for GAATTTCCATTGGAGG (sugars k3 d10 k3, PS), 43%. On the same count and under the same terms, to TGCTACTGCGGACATC (sugars k3 d10 k3, PS) belongs 43%; to AGCAAGTGTCTTCCAC (sugars k3 d10 k3, PS), 75% and 72%. Take TAGGATAATATACCCC (sugars k3 d10 k3, PS): the target mRNA inhibition stood at 74%. For CTTTACACAGTTCTAA (sugars k3 d10 k3, PS), the target mRNA inhibition is -13%. Turning to TCCTAAATCACCCTGG (sugars k3 d10 k3, PS), the target mRNA inhibition amounted to 21%. As for AGCCACGAGGCACCGC (sugars k3 d10 k3, PS), the target mRNA inhibition came to 12%. On the same count and under the same terms, to CCATAGAGCCAGAGCA (sugars k3 d10 k3, PS) belongs 64%; to CGCCACCTGATGCCTC (sugars k3 d10 k3, PS), 30%; to TCCATATGACCCAGTG (sugars k3 d10 k3, PS), 66%. With ATAACGAGGTGCCTTA (sugars k3 d10 k3, PS), the target mRNA inhibition came out at 13%. The same measure, in the same setting: to AATATAGTTGTCTGGC (sugars k3 d10 k3, PS) belongs 50%; to GTAAGAGGGCAGTCAA (sugars k3 d10 k3, PS), 44%. Still for that read-out and setting: the result for TAGGAAGCACTGGCAT (sugars k3 d10 k3, PS) reads 28%; that for AACTATAATTGGCACG (sugars k3 d10 k3, PS), 73% and 59%; that for ATTAATTCTCCTATGC (sugars k3 d10 k3, PS), 15%. Still for that read-out and setting: to CGCTACAGCTTCTGCA (sugars k3 d10 k3, PS) belongs 20%; to TGGAGGTCTTTGGGAT (sugars k3 d10 k3, PS), 58%; to GGCCCGGGCGCATCCC (sugars k3 d10 k3, PS), 5%. As for CATTTACTGTTACCGA (sugars k3 d10 k3, PS), the target mRNA inhibition is 79%. On the same count and under the same terms, the result for AGCTTGCAGGTCTGGT (sugars k3 d10 k3, PS) reads 53%. As to AGACAAATCTTCTGCC (sugars k3 d10 k3, PS), the target mRNA inhibition was -4%. Still for that read-out and setting: the result for AGTGCCCAAGCCTTGA (sugars k3 d10 k3, PS) reads 48%; that for CTTTAGTGTCGCCATG (sugars k3 d10 k3, PS), 29%; that for AATGAGTCGGTCACTT (sugars k3 d10 k3, PS), 46%. On to GGAAATTCAAGCTTTC (sugars k3 d10 k3, PS), for which the target mRNA inhibition is 64%. On the same count and under the same terms, to AACAAACAGAGGAGCG (sugars k3 d10 k3, PS) belongs 16%; to GTAAATGAGTCGGTCA (sugars k3 d10 k3, PS), 79%. Same read-out and setting: the result for ATCTACTCCAGACCCC (sugars k3 d10 k3, PS) reads 27%.

Turning to GTTCTAGTCGCGCAAG (sugars k3 d10 k3, PS), the target mRNA inhibition is 27%. The same measure, in the same setting: to TCAGTTGTAAATGAGT (sugars k3 d10 k3, PS) belongs 72%; to ACCCAATAGTCTAGCT (sugars k3 d10 k3, PS), 25%.

The same data set, now with this note: ASO, SK-MEL-28, 15 µM.
Regarding CTGCTCACTAAGCTTG (sugars k3 d10 k3, PS), the target mRNA inhibition was 78% and 80% and 94%.
